Tests used:
Format in all cases: in vivo
[1] = system: barnyardgrass (Echinochloa crus-galli); assay: Test B pre-/postemergence plant response
Method in brief: (§1)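 Visual injury rating, 0 (no effect) to 100 (complete control), vs untreated controls after ~10 d greenhouse. Pre: directed soil spray after planting in loam/sand. Post: plants 2–10 cm, 1–2 leaf stage. Compound in non-phytotoxic solvent plus surfactant.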

corn (Zea mays) = assay: Test B pre-/postemergence plant response
Method in brief: as §1

[2] = system: giant foxtail (Setaria faberii); assay: Test B pre-/postemergence plant response
Method in brief: as §1

[3] = system: pigweed (Amaranthus retroflexus); assay: Test B pre-/postemergence plant response
Method in brief: as §1

[4] = system: wheat (Triticum aestivum); assay: Test B pre-/postemergence plant response
Method in brief: as §1

[5] = system: barnyardgrass (Echinochloa crus-galli); assay: Test D pre-/postemergence plant response
Method in brief: (§2)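 Plants are held in a greenhouse 13 to 15 days after spraying, then injury is rated by eye relative to controls on a 0 to 100 scale. Treatments are preemergence on freshly sown loam/sand pots or postemergence at 1- to 4-leaf stage in peat-based medium; surfactant-containing solvent formulation.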

[6] = system: blackgrass (Alopecurus myosuroides); assay: Test D pre-/postemergence plant response
Method in brief: as §2

[7] = system: giant foxtail (Setaria faberii); assay: Test D pre-/postemergence plant response
Method in brief: as §2

[8] = system: johnsongrass (Sorghum halepense); assay: Test D pre-/postemergence plant response
Method in brief: as §2

[9] = system: large (Lg) crabgrass (Digitaria sanguinalis); assay: Test D pre-/postemergence plant response
Method in brief: as §2

[10] = system: morningglory (Ipomoea coccinea); assay: Test D pre-/postemergence plant response
Method in brief: as §2

[11] = system: pigweed (Amaranthus retroflexus); assay: Test D pre-/postemergence plant response
Method in brief: as §2

[12] = system: ragweed (common ragweed, Ambrosia elatior); assay: Test D pre-/postemergence plant response
Method in brief: as §2

soybean (Glycine max) = assay: Test D pre-/postemergence plant response
Method in brief: as §2

[13] = system: waterhemp (common waterhemp, Amaranthus rudis); assay: Test D pre-/postemergence plant response
Method in brief: as §2

[14] = system: yellow nutsedge (Cyperus esculentus); assay: Test D pre-/postemergence plant response
Method in brief: as §2

[15] = 31 g ai/ha, Preemergence, 0 to 100 scale where 0 is no effect and 100 is complete control
[16] = 125 g ai/ha, postemergence, 0 to 100 scale, 0 no effect, 100 complete control
[17] = Postemergence, 31 g ai/ha, 0 to 100 scale (0 no effect, 100 complete control)
[18] = Preemergence, 125 g ai/ha, 0 to 100 scale (0 no effect, 100 complete control)
[19] = Postemergence, 31 g ai/ha, scale 0 to 100 (0 no effect, 100 complete control)
[20] = Postemergence, 62 g ai/ha, scale 0 to 100, 0 no effect, 100 complete control
[21] = Postemergence, 125 g ai/ha, scale 0 to 100, 0 no effect, 100 complete control
[22] = Preemergence, 16 g ai/ha, scale 0 to 100 (0 no effect, 100 complete control)
[23] = Preemergence, 31 g ai/ha, scale 0 to 100 (0 no effect, 100 complete control)
[24] = Preemergence, 62 g ai/ha, scale 0 to 100 (0 no effect, 100 complete control)

SMILES: Cc1cc(-c2c(F)cccc2Oc2ncc(Cl)cn2)on1 [Compound 229]
- Plant response rating, Barnyardgrass [1, 15]: 50
- Plant response rating, Barnyardgrass [1, 16]: 70
- Plant response rating, Barnyardgrass [1, 17]: 20
- Barnyardgrass plant response rating [1, 18]: 90
- Plant response rating, Corn (corn (Zea mays); [16]): 30
- Plant response rating, Corn (corn (Zea mays); [17]): 0
- Plant response rating, Foxtail, Giant [2, 15]: 90
- Plant response rating, Foxtail, Giant [2, 16]: 80
- Plant response rating, Foxtail, Giant [2, 17]: 50
- Foxtail, Giant plant response rating [2, 18]: 90
- Plant response rating, Pigweed [3, 15]: 100
- Plant response rating, Pigweed [3, 16]: 100
- Plant response rating, Pigweed [3, 17]: 70
- Pigweed plant response rating [3, 18]: 100
- Plant response rating, Wheat [4, 16]: 40
- Plant response rating, Wheat [4, 17]: 0
- Plant response rating (scale 0 to 100), Barnyardgrass ([5]; Postemergence, 16 g ai/ha): 5
- Barnyardgrass plant response rating [5, 19]: 5
- Plant response rating, Barnyardgrass [5, 20]: 5
- Plant response rating, Barnyardgrass [5, 21]: 10
- Plant response rating (scale 0 to 100), Barnyardgrass ([5]; Preemergence, 125 g ai/ha): 100
- Plant response rating, Barnyardgrass [5, 22]: 15
- Plant response rating, Barnyardgrass [5, 23]: 55
- Plant response rating, Barnyardgrass [5, 24]: 65
- Plant response rating (scale 0 to 100), Blackgrass ([6]; Postemergence, 16 g ai/ha): 0
- Blackgrass plant response rating [6, 19]: 10
- Plant response rating, Blackgrass [6, 20]: 15
- Plant response rating, Blackgrass [6, 21]: 10
- Plant response rating (scale 0 to 100), Blackgrass ([6]; Preemergence, 125 g ai/ha): 85
- Plant response rating, Blackgrass [6, 22]: 15
- Plant response rating, Blackgrass [6, 23]: 15
- Plant response rating, Blackgrass [6, 24]: 70
- Plant response rating (scale 0 to 100), Foxtail, Giant ([7]; Postemergence, 16 g ai/ha): 0
- Foxtail, Giant plant response rating [7, 19]: 5
- Plant response rating, Foxtail, Giant [7, 20]: 5
- Plant response rating, Foxtail, Giant [7, 21]: 15
- Plant response rating (scale 0 to 100), Foxtail, Giant ([7]; Preemergence, 125 g ai/ha): 98
- Plant response rating, Foxtail, Giant [7, 22]: 5
- Plant response rating, Foxtail, Giant [7, 23]: 70
- Plant response rating, Foxtail, Giant [7, 24]: 90
- Plant response rating (scale 0 to 100), Johnsongrass ([8]; Postemergence, 16 g ai/ha): 0
- Johnsongrass plant response rating [8, 19]: 0
- Plant response rating, Johnsongrass [8, 20]: 0
- Plant response rating, Johnsongrass [8, 21]: 25
- Plant response rating (scale 0 to 100), Johnsongrass ([8]; Preemergence, 125 g ai/ha): 70
- Plant response rating, Johnsongrass [8, 22]: 10
- Plant response rating, Johnsongrass [8, 23]: 10
- Plant response rating, Johnsongrass [8, 24]: 45
- Plant response rating (scale 0 to 100), Crabgrass, Large ([9]; Postemergence, 16 g ai/ha): 0
- Crabgrass, Large plant response rating [9, 19]: 0
- Plant response rating, Crabgrass, Large [9, 20]: 5
- Plant response rating, Crabgrass, Large [9, 21]: 5
- Plant response rating (scale 0 to 100), Crabgrass, Large ([9]; Preemergence, 125 g ai/ha): 100
- Plant response rating, Crabgrass, Large [9, 22]: 75
- Plant response rating, Crabgrass, Large [9, 23]: 85
- Plant response rating, Crabgrass, Large [9, 24]: 100
- Plant response rating (scale 0 to 100), Morningglory ([10]; Postemergence, 16 g ai/ha): 40
- Morningglory plant response rating [10, 19]: 25
- Morningglory plant response rating [10, 20]: 25
- Plant response rating, Morningglory [10, 21]: 35
- Plant response rating (scale 0 to 100), Morningglory ([10]; Preemergence, 125 g ai/ha): 45
- Plant response rating, Morningglory [10, 22]: 0
- Plant response rating, Morningglory [10, 23]: 0
- Plant response rating, Morningglory [10, 24]: 35
- Plant response rating (scale 0 to 100), Pigweed ([11]; Postemergence, 16 g ai/ha): 55
- Pigweed plant response rating [11, 19]: 60
- Pigweed plant response rating [11, 20]: 70
- Plant response rating, Pigweed [11, 21]: 80
- Plant response rating (scale 0 to 100), Pigweed ([11]; Preemergence, 125 g ai/ha): 100
- Plant response rating, Pigweed [11, 22]: 100
- Plant response rating, Pigweed [11, 23]: 100
- Plant response rating, Pigweed [11, 24]: 100
- Plant response rating (scale 0 to 100), Ragweed ([12]; Postemergence, 16 g ai/ha): 35
- Ragweed plant response rating [12, 19]: 50
- Ragweed plant response rating [12, 20]: 70
- Plant response rating, Ragweed [12, 21]: 60
- Plant response rating (scale 0 to 100), Ragweed ([12]; Preemergence, 125 g ai/ha): 95
- Plant response rating, Ragweed [12, 22]: 35
- Plant response rating, Ragweed [12, 23]: 50
- Plant response rating, Ragweed [12, 24]: 55
- Plant response rating (scale 0 to 100), Soybean (soybean (Glycine max); Postemergence, 16 g ai/ha): 20
- Soybean plant response rating (soybean (Glycine max); [19]): 40
- Soybean plant response rating (soybean (Glycine max); [20]): 45
- Plant response rating, Soybean (soybean (Glycine max); [21]): 70
- Plant response rating (scale 0 to 100), Soybean (soybean (Glycine max); Preemergence, 125 g ai/ha): 95
- Plant response rating, Soybean (soybean (Glycine max); [22]): 5
- Plant response rating, Soybean (soybean (Glycine max); [23]): 35
- Plant response rating, Soybean (soybean (Glycine max); [24]): 60
- Plant response rating (scale 0 to 100), Waterhemp ([13]; Postemergence, 16 g ai/ha): 60
- Waterhemp plant response rating [13, 19]: 70
- Waterhemp plant response rating [13, 20]: 80
- Plant response rating, Waterhemp [13, 21]: 85
- Plant response rating (scale 0 to 100), Waterhemp ([13]; Preemergence, 125 g ai/ha): 98
- Plant response rating, Waterhemp [13, 22]: 95
- Plant response rating, Waterhemp [13, 23]: 100
- Plant response rating, Waterhemp [13, 24]: 98
- Plant response rating (scale 0 to 100), Nutsedge, Yellow ([14]; Postemergence, 16 g ai/ha): 0
- Nutsedge, Yellow plant response rating [14, 19]: 0
- Nutsedge, Yellow plant response rating [14, 20]: 10
- Plant response rating, Nutsedge, Yellow [14, 21]: 10
- Plant response rating (scale 0 to 100), Nutsedge, Yellow ([14]; Preemergence, 125 g ai/ha): 45
- Plant response rating, Nutsedge, Yellow [14, 22]: 0
- Plant response rating, Nutsedge, Yellow [14, 23]: 0
- Plant response rating, Nutsedge, Yellow [14, 24]: 10

SMILES: Cc1cc(-c2c(F)cccc2Oc2ncc(Br)cn2)on1 [Compound 230]
- Plant response rating, Barnyardgrass [1, 15]: 10
- Plant response rating, Barnyardgrass [1, 16]: 60
- Plant response rating, Barnyardgrass [1, 17]: 0
- Barnyardgrass plant response rating [1, 18]: 70
- Plant response rating, Corn (corn (Zea mays); [16]): 10
- Plant response rating, Corn (corn (Zea mays); [17]): 0
- Plant response rating, Foxtail, Giant [2, 15]: 60
- Plant response rating, Foxtail, Giant [2, 16]: 70
- Plant response rating, Foxtail, Giant [2, 17]: 0
- Foxtail, Giant plant response rating [2, 18]: 90
- Plant response rating, Pigweed [3, 15]: 90
- Plant response rating, Pigweed [3, 16]: 90
- Plant response rating, Pigweed [3, 17]: 60
- Pigweed plant response rating [3, 18]: 100
- Plant response rating, Wheat [4, 16]: 10
- Plant response rating, Wheat [4, 17]: 0
- Plant response rating (scale 0 to 100), Barnyardgrass ([5]; Postemergence, 16 g ai/ha): 5
- Barnyardgrass plant response rating [5, 19]: 5
- Barnyardgrass plant response rating [5, 20]: 10
- Plant response rating, Barnyardgrass [5, 21]: 5
- Plant response rating (scale 0 to 100), Blackgrass ([6]; Postemergence, 16 g ai/ha): 0
- Blackgrass plant response rating [6, 19]: 10
- Blackgrass plant response rating [6, 20]: 10
- Plant response rating, Blackgrass [6, 21]: 10
- Plant response rating (scale 0 to 100), Foxtail, Giant ([7]; Postemergence, 16 g ai/ha): 5
- Foxtail, Giant plant response rating [7, 19]: 5
- Foxtail, Giant plant response rating [7, 20]: 10
- Plant response rating, Foxtail, Giant [7, 21]: 10
- Plant response rating (scale 0 to 100), Johnsongrass ([8]; Postemergence, 16 g ai/ha): 0
- Johnsongrass plant response rating [8, 19]: 0
- Johnsongrass plant response rating [8, 20]: 5
- Plant response rating, Johnsongrass [8, 21]: 5
- Plant response rating (scale 0 to 100), Crabgrass, Large ([9]; Postemergence, 16 g ai/ha): 0
- Crabgrass, Large plant response rating [9, 19]: 5
- Crabgrass, Large plant response rating [9, 20]: 5
- Plant response rating, Crabgrass, Large [9, 21]: 10
- Plant response rating (scale 0 to 100), Morningglory ([10]; Postemergence, 16 g ai/ha): 5
- Morningglory plant response rating [10, 19]: 5
- Morningglory plant response rating [10, 20]: 5
- Plant response rating, Morningglory [10, 21]: 70
- Plant response rating (scale 0 to 100), Pigweed ([11]; Postemergence, 16 g ai/ha): 60
- Pigweed plant response rating [11, 19]: 65
- Pigweed plant response rating [11, 20]: 70
- Plant response rating, Pigweed [11, 21]: 85
- Plant response rating (scale 0 to 100), Ragweed ([12]; Postemergence, 16 g ai/ha): 30
- Ragweed plant response rating [12, 19]: 40
- Ragweed plant response rating [12, 20]: 55
- Plant response rating, Ragweed [12, 21]: 55
- Plant response rating (scale 0 to 100), Soybean (soybean (Glycine max); Postemergence, 16 g ai/ha): 50
- Soybean plant response rating (soybean (Glycine max); [19]): 55
- Soybean plant response rating (soybean (Glycine max); [20]): 65
- Plant response rating, Soybean (soybean (Glycine max); [21]): 85
- Plant response rating (scale 0 to 100), Waterhemp ([13]; Postemergence, 16 g ai/ha): 65
- Waterhemp plant response rating [13, 19]: 70
- Waterhemp plant response rating [13, 20]: 75
- Plant response rating, Waterhemp [13, 21]: 80
- Plant response rating (scale 0 to 100), Nutsedge, Yellow ([14]; Postemergence, 16 g ai/ha): 0
- Nutsedge, Yellow plant response rating [14, 19]: 0
- Nutsedge, Yellow plant response rating [14, 20]: 5
- Plant response rating, Nutsedge, Yellow [14, 21]: 5

From US10131652B2, “Pyrimidinyloxy benzene derivatives as herbicides” (E. I. DU PONT DE NEMOURS AND COMPANY, priority 2014, dated 2018)
